Source: patent US20240148676A1, “COMBINATION THERAPY WITH PD-1 SIGNAL INHIBITOR” (Kyoto University, priority 2021, published 2024)

How the values were obtained:
LLC cells = test: LLC tumor growth in WT mice, anti-PD-L1 antibody and/or CD45 inhibitor; format: in vivo, mouse; settings: young WT mice; for tumor growth: CD45 inhibitor (3 mg/kg i.p., from day 7, three times) in combination with anti-PD-L1 antibody (2 mg/kg, days 7, 13, 19), LLC 2×10^6; for inhibitory effect against LLC tumor growth: CD45 inhibitor alone
Experimental: (§1) CD45 inhibition (FIG. 12): 2-(4-acetylanilino)-3-chloronaphthoquinone (211) (530197, EDM Millipore) (12) (3 mg/kg) or N-(9,10-dioxo-9,10-dihydrophenanthren-2-yl)-2,2-dimethylpropionamide (PTP) (540215, Sigma-Aldrich) (13) (3 mg/kg) was administered intraperitoneally to mice before tumor cell inoculation or 5 or 7 days after tumor cell inoculation. MC38 cells (5×10^5 or 1×10^6) or LLC cells (2×10^6) were intradermally inoculated into the right flank of mice (day 0). Seven days after LLC cell inoculation (day 7), mice received intraperitoneal administration of anti-PD-L1 antibody (clone 1-111A.4) (2 mg/kg). Administration of this anti-PD-L1 antibody was repeated 3 times at an interval of 6 days (on days 7, 13, and 19). Tumor size was measured with calipers, and tumor volume was calculated using the following formula: π (length×breadth×height)/6.
LLC cells (2×10^6 cells/tumor) were i.d. inoculated into the right flank of young (1 to 2-month old) WT mice (FIG. 16A). After 7 days, therapy was started using anti-PD-L1 antibody alone or in combination with CD45 inhibitor (211 or PTP) to examine tumor growth (FIG. 16A). […] Further, a therapeutic effect of using CD45 inhibitor alone was examined under similar conditions.

[1] = tested on: MC38 murine colon adenocarcinoma cells; test: MC38 tumor growth in PD-1 KO mice given CD45 inhibitor; format: in vivo, mouse; settings: for tumor volume: PD-1 KO mice (2-month old), vs vehicle
Experimental: as §1
CD45 inhibitor (211) was administered intraperitoneally at 3 mg/kg to PD-1 KO mice (2-month old) once 3 days before inoculation of MC38 murine colon adenocarcinoma cells (preadministration) or 3 times 5 days after inoculation of MC38 cells (postadministration) (FIG. 13A and B). MC38 cells were intradermally inoculated into the right flank of miceat 1×10^6 cells/tumor.
CD45 inhibitor (211) was administered intraperitoneally at 3 mg/kg to young (1 to 2-month old) or aged (14 to 16-month old) PD-1 KO mice […]. Three days after administration of 211, MC38 cells were intradermally inoculated into the right flank of mice at 5×10^5 cells/tumor, followed by monitoring tumor growth.

Compound | tumor growth (LLC cells) | inhibitory effect against LLC tumor growth (LLC cells) | tumor growth ([1]; aged (14 to 16-month old) PD-1 KO mice, 3 mg/kg i.p. 3 days before MC38 (5×10^5) inoculation) | tumor volume ([1]; postadministration: 3 mg/kg i.p. 3 times from day 5 after MC38 (1×10^6) inoculation) | tumor volume ([1]; preadministration: 3 mg/kg i.p. once 3 days before MC38 (1×10^6) inoculation)
CC(C)(C)C(=O)Nc1ccc2c(c1)C(=O)C(=O)c1ccccc1-2 [PTP, N-(9,10-dioxo-9,10-dihydrophenanthren-2-yl)-2,2-dimethylpropionamide] | significantly inhibited | significant inhibitory effect was not shown |  |  | 
CC(=O)c1ccc(NC2=C(Cl)C(=O)c3ccccc3C2=O)cc1 [compound 211, 2-(4-acetylanilino)-3-chloronaphthoquinone] | significantly inhibited | significant inhibitory effect was not shown | strongly inhibited | significantly reduced | significantly reduced
